The values that follow come from patent publication US11926620B1, “1-Cyclopropyl-6-fluoro-4-oxo-7-(4-((2-thioxobenzo[d]oxazol-3(2H)-yl)methyl)piperazin-1-yl)-1,4-dihydroquinoline-3-carboxylic acid as an antimicrobial and anticancer compound” (KING FAISAL UNIVERSITY, priority 2023, dated 2024).

The test system of data set [1] is Pseudomonas aeruginosa. As to the kind of experiment: Agar plate disc-diffusion, Pseudomonas aeruginosa. It counts as cell-based. As to conditions: gram-negative Pseudomonas aeruginosa; disc 10 μL of 10 mg/mL in DMSO, 37° C., 48 h; result in words. The protocol: (§1) The antimicrobial properties of the synthesized compounds were studied by the method of agar plate disc-diffusion. Sterilized filter papers (6 mm in diameter) were wetted with 10 μL of a solution of each compound to be tested, containing 10 mg/mL in DMSO, and the discs were allowed to air dry. The discs were then placed onto the surface of agar plates (nutrient agar for bacteria and Sabouraud's dextrose agar for fungi) seeded with the test organism. Each plate contained 15 mL of the agar medium, previously seeded with 0.2 mL of the broth culture of each organism pregrown for 18 h. The plates were incubated at 37° C. for 48 h, and 72 h for fungi. The inhibition zones were measured in mm. Discs impregnated with DMSO were used as a control, and its inhibition zone was subtracted from the tested compound actual inhibition zone.
A general note: In agar diffusion tests the substance spreads into inoculated agar from a disc or well.

Data set [2] deals with Chrysosporium keratinophilum. As to the kind of experiment: Agar plate disc-diffusion, Chrysosporium keratinophilum. It counts as cell-based. As to conditions: disc 10 μL of 10 mg/mL in DMSO, 72 h, result in words. The protocol:
as §1

In data set [3] the test system is Staphylococcus aureus. As to the kind of experiment: Agar plate disc-diffusion, Staphylococcus aureus. To be noted: gram positive Staphylococcus aureus; disc 10 μL of 10 mg/mL in DMSO, 37° C., 48 h; result in words. It counts as cell-based. The method, then:
as §1

The test system of data set [4] is human prostate cancer cells (PC3). As to the kind of experiment: Cytotoxicity by SRB assay, PC3. It counts as cell-based. As to conditions: 0.01 μM to 100 μM for 72 h, result in words. The protocol: (§2) The human prostate cancer cells (PC3) and human osteosarcoma cells (MG-63) were obtained from Nawah Scientific Inc. (Mokatam, Cairo, Egypt) and cultured in DMEM (Dulbecco's modified eagle's medium), Gibco, USA, supplemented with fetal bovine serum (FBS) at a concentration of 10% and 100 U/mL of penicillin and streptomycin (PS). The Cells were incubated at 37° C. in a humidified environment that contained 5% CO2. Cells were seeded in 96-well plates as aliquots of 100 μL cell suspension and incubated in a complete media for 24 h. afterward, cells were treated with 1-Cyclopropyl-6-fluoro-4-oxo-7-(4-((2-thioxobenzo[d]oxazol-3(2H)-yl)methyl)piperazin-1-yl)-1,4-dihydroquinoline-3-carboxylic acid at diverse concentrations ranging from 0.01 μM to 100 μM for 72 h. Then, cells were fixed at 4° C. for one hour with 150 μL of 10% trichloroacetic acid (TCA). […] Then, 150 μL of Tris pH 10.5 (10 mM) was added, and the absorbance was measured at 540 nm using a BMG LABTECH®-FLUOstar Omega microplate reader (Ortenberg, Germany). Half maximal inhibitory concentrations (IC50) values were calculated for each experiment using GraphPad Prism 6 software. […] The inhibition was calculated using the following equation: Inhibition %=100−Average Viability
In general terms: Sulforhodamine B stains cellular protein and so reports cell mass.

Data set [5] concerns Bacillus cereus. As to the kind of experiment: Agar plate disc-diffusion, Bacillus cereus. It counts as cell-based. As to conditions: gram positive Bacillus cereus; disc 10 μL of 10 mg/mL in DMSO, 37° C., 48 h; result in words. The method, then:
as §1

Data set [6] relates to Escherichia coli. Description: Agar plate disc-diffusion, Escherichia coli. It counts as cell-based. To be noted: gram-negative Escherichia coli; disc 10 μL of 10 mg/mL in DMSO, 37° C., 48 h; result in words. The method, then:
as §1

Data set [7] concerns Aspergillus flavus. Description: Agar plate disc-diffusion, Aspergillus flavus. It counts as cell-based. As to conditions: disc 10 μL of 10 mg/mL in DMSO, 72 h, result in words. The method, then: as §1
Data set [8] has as its system human osteosarcoma cells (MG-63). As to the kind of experiment: Cytotoxicity by SRB assay, MG-63. It counts as cell-based. To be noted: MG-63 cells, 0.01 μM to 100 μM for 72 h, result in words. The protocol:
as §2

With `O=C(O)c1cn(C2CC2)c2cc(N3CCN(Cn4c(=S)oc5ccccc54)CC3)c(F)cc2c1=O` [1-cyclopropyl-6-fluoro-4-oxo-7-(4-((2-thioxobenzo[d]oxazol-3(2H)-yl)methyl)piperazin-1-yl)-1,4-dihydroquinoline-3-carboxylic acid], the melting point lay in the range of 187 to 189 °C. Also, the antibacterial activity entry in data set [1] is listed as “excellent antimicrobials activities”. Moreover, the antifungal activity result in [2] is listed as “excellent antimicrobials activities”. Moreover, the antibacterial activity entry in [3] was “excellent antimicrobials activities”. In addition, the antiproliferative activity result in data set [4] is “excellent antiproliferative activities”. The antibacterial activity entry in data set [5] was “excellent antimicrobials activities”. Besides, the antibacterial activity entry in data set [6] is given as “excellent antimicrobials activities”. In [7], the antifungal activity result is listed as “excellent antimicrobials activities”. In addition, the antiproliferative activity result in [8] was “excellent antiproliferative activities”.

Broadly, the melting point is the temperature of the solid-liquid transition.
